Reference: the NIST ThermoML archive (doi:10.1016/j.fluid.2019.05.003)

Experiment: xn = mol fraction of the nth substance listed
Details: 101 kPa, Liquid; for viscosity: Falling or rolling sphere viscometry; for mass density: Vibrating tube method

C[N+]1(CCO)CCOCC1.[Br-] [N-methyl-N-(2-hydroxyethyl)morpholinium bromide] + O
Details	mass density [kg/m3]	viscosity [mPa·s]
298.15 K, x1 = 0.023	1078.7	1.173
298.15 K, x1 = 0.038	1121	1.482
298.15 K, x1 = 0.051	1150.9	1.716
298.15 K, x1 = 0.075	1197.8	2.345
298.15 K, x1 = 0.097	1232	3.195
298.15 K, x1 = 0.124	1264.8	4.717
298.15 K, x1 = 0.157	1297.5	7.331
298.15 K, x1 = 0.197	1328.8	14.15
298.15 K, x1 = 0.227	1345.7	20.61
303.15 K, x1 = 0.023	1076.7	1.058
303.15 K, x1 = 0.038	1118.8	1.33
303.15 K, x1 = 0.051	1148.6	1.536
303.15 K, x1 = 0.075	1195.3	2.087
303.15 K, x1 = 0.097	1229.3	2.831
303.15 K, x1 = 0.124	1262	4.126
303.15 K, x1 = 0.157	1294.6	6.314
303.15 K, x1 = 0.197	1325.9	12.14
303.15 K, x1 = 0.227	1342.8	17.39
308.15 K, x1 = 0.023	1074.6	0.962
308.15 K, x1 = 0.038	1116.5	1.206
308.15 K, x1 = 0.051	1146.2	1.385
308.15 K, x1 = 0.075	1192.7	1.878
308.15 K, x1 = 0.097	1226.6	2.526
308.15 K, x1 = 0.124	1259.2	3.653
308.15 K, x1 = 0.157	1291.7	5.635
308.15 K, x1 = 0.197	1322.9	10.46
308.15 K, x1 = 0.227	1339.7	14.76
313.15 K, x1 = 0.023	1072.3	0.88
313.15 K, x1 = 0.038	1114.1	1.101
313.15 K, x1 = 0.051	1143.6	1.26
313.15 K, x1 = 0.075	1190	1.7
313.15 K, x1 = 0.097	1223.8	2.278
313.15 K, x1 = 0.124	1256.4	3.255
313.15 K, x1 = 0.157	1288.8	4.938
313.15 K, x1 = 0.197	1319.9	9.042
313.15 K, x1 = 0.227	1336.7	12.6
318.15 K, x1 = 0.023	1069.8	0.81
318.15 K, x1 = 0.038	1111.6	1.011
318.15 K, x1 = 0.051	1141	1.154
318.15 K, x1 = 0.075	1187.3	1.547
318.15 K, x1 = 0.097	1221	2.062
318.15 K, x1 = 0.124	1253.5	2.921
318.15 K, x1 = 0.157	1285.8	4.371
318.15 K, x1 = 0.197	1316.9	7.869
318.15 K, x1 = 0.227	1333.7	10.85
323.15 K, x1 = 0.023	1066.9	0.754
323.15 K, x1 = 0.038	1109	0.933
323.15 K, x1 = 0.051	1138.2	1.061
323.15 K, x1 = 0.075	1184.5	1.416
323.15 K, x1 = 0.097	1218.1	1.88
323.15 K, x1 = 0.124	1250.5	2.641
323.15 K, x1 = 0.157	1282.8	3.899
323.15 K, x1 = 0.197	1313.9	6.877
323.15 K, x1 = 0.227	1330.6	9.429
328.15 K, x1 = 0.023	1064.7	0.703
328.15 K, x1 = 0.038	1106.2	0.871
328.15 K, x1 = 0.051	1135.9	0.982
328.15 K, x1 = 0.075	1181.6	1.305
328.15 K, x1 = 0.097	1215.1	1.718
328.15 K, x1 = 0.124	1247.6	2.4
328.15 K, x1 = 0.157	1279.8	3.505
328.15 K, x1 = 0.197	1310.7	6.095
328.15 K, x1 = 0.227	1327.5	8.272
333.15 K, x1 = 0.023	1062.5	0.656
333.15 K, x1 = 0.038	1103.3	0.807
333.15 K, x1 = 0.051	1133.3	0.913
333.15 K, x1 = 0.075	1178.7	1.201
333.15 K, x1 = 0.097	1212.1	1.581
333.15 K, x1 = 0.124	1244.5	2.186
333.15 K, x1 = 0.157	1276.7	3.163
333.15 K, x1 = 0.197	1307.8	5.346
333.15 K, x1 = 0.227	1324.2	7.316
338.15 K, x1 = 0.023	1060.1	0.632
338.15 K, x1 = 0.038	1101.2	0.756
338.15 K, x1 = 0.051	1130.8	0.849
338.15 K, x1 = 0.075	1175.6	1.135
338.15 K, x1 = 0.097	1209.5	1.453
338.15 K, x1 = 0.124	1241.5	2.007
338.15 K, x1 = 0.157	1273.5	2.854
338.15 K, x1 = 0.197	1304.7	4.811
338.15 K, x1 = 0.227	1321.1	6.504
343.15 K, x1 = 0.023	1057.7	0.596
343.15 K, x1 = 0.038	1098.7	0.716
343.15 K, x1 = 0.051	1128.3	0.796
343.15 K, x1 = 0.075	1173.2	1.055
343.15 K, x1 = 0.097	1206.6	1.339
343.15 K, x1 = 0.124	1238.3	1.873
343.15 K, x1 = 0.157	1270.4	2.621
343.15 K, x1 = 0.197	1301.5	4.333
343.15 K, x1 = 0.227	1317.9	5.834
348.15 K, x1 = 0.023	1055.3	0.561
348.15 K, x1 = 0.038	1096.2	0.675
348.15 K, x1 = 0.051	1125.7	0.749
348.15 K, x1 = 0.075	1170.4	0.996
348.15 K, x1 = 0.097	1203.8	1.259
348.15 K, x1 = 0.124	1235.2	1.719
348.15 K, x1 = 0.157	1267.6	2.407
348.15 K, x1 = 0.197	1298.3	3.882
348.15 K, x1 = 0.227	1315.1	5.243
